Reference: patent US20260262643A1, “HERBICIDAL BENZOXAZINES” (FMC CORPORATION, priority 2022, published 2026)

What was measured:
ryegrass, Italian [1] = assay: Test C postemergence; format: in vivo, Lolium multiflorum; settings: Postemergence, 1000 g ai/ha
Excerpt: (§1) Seeds of plant species selected from barnyardgrass (Echinochloa crusgalli), blackgrass (Alopecurus myosuroides), corn (Zea mays), foxtail, giant (giant foxtail, Setaria faberi), green foxtail (Setaria viridis), goosegrass (Eleusine indica), kochia (Bassia scoparia), oat, wild (wild oat, Avena fatua), pigweed, palmer (palmer amaranth, palmer pigweed, Amaranthus palmeri), Pigweed, Redroot (redroot pigweed, Amaranthus retroflexus), ragweed (common ragweed, Ambrosia artemisiifolia), ryegrass, Italian ([…] ryegrass, Lolium multiflorum), soybean (Glycine max), and wheat (Triticum aestivum) were planted into a blend of loam soil and sand and treated preemergence with a directed soil spray using test chemicals formulated in a non-phytotoxic solvent mixture which included a surfactant. At the same time, plants selected from these crops and weed species and also galium (catchweed bedstraw, Galium aparine) and horseweed (Erigeron canadensis) were planted in pots containing the same blend of loam soil and sand and treated with postemergence applications of test chemicals formulated in the same manner. Plants ranged in height from 2 to 10 cm and were in the one- to two-leaf stage for the postemergence treatment. Treated plants and untreated controls were maintained in a greenhouse for 10 days, after which time all treated plants were compared to untreated controls and visually evaluated for injury. Plant response ratings, summarized in Table C, are based on a 0 to 100 scale where 0 is no effect and 100 is complete control. A dash (-) response means no test result.

blackgrass [2] = assay: Test C preemergence; format: in vivo, Alopecurus myosuroides; settings: Preemergence, 1000 g ai/ha; visual rating after 10 days, 0 to 100 scale (0 no effect, 100 complete control)
Excerpt: as §1

ragweed [3] = assay: Test C postemergence; format: in vivo, Ambrosia artemisiifolia; settings: Postemergence, 1000 g ai/ha
Excerpt: as §1

barnyardgrass [4] = assay: Test C postemergence; format: in vivo, Echinochloa crusgalli; settings: Postemergence, 1000 g ai/ha
Excerpt: as §1

blackgrass [5] = assay: Test C postemergence; format: in vivo, Alopecurus myosuroides; settings: Postemergence, 1000 g ai/ha
Excerpt: as §1

barnyardgrass [6] = assay: Test C preemergence; format: in vivo, Echinochloa crusgalli; settings: Preemergence, 1000 g ai/ha; visual rating after 10 days, 0 to 100 scale (0 no effect, 100 complete control)
Excerpt: as §1

kochia [7] = assay: Test C postemergence; format: in vivo, Bassia scoparia; settings: Postemergence, 1000 g ai/ha
Excerpt: as §1

green foxtail [8] = assay: Test C postemergence; format: in vivo, Setaria viridis; settings: Postemergence, 1000 g ai/ha
Excerpt: as §1

green foxtail [9] = assay: Test C preemergence; format: in vivo, Setaria viridis; settings: Preemergence, 1000 g ai/ha; visual rating after 10 days, 0 to 100 scale (0 no effect, 100 complete control)
Excerpt: as §1

kochia [10] = assay: Test C preemergence; format: in vivo, Bassia scoparia; settings: Preemergence, 1000 g ai/ha; visual rating after 10 days, 0 to 100 scale (0 no effect, 100 complete control)
Excerpt: as §1

pigweed, palmer [11] = assay: Test C postemergence; format: in vivo, Amaranthus palmeri; settings: Postemergence, 1000 g ai/ha
Excerpt: as §1

ragweed [12] = assay: Test C preemergence; format: in vivo, Ambrosia artemisiifolia; settings: Preemergence, 1000 g ai/ha; visual rating after 10 days, 0 to 100 scale (0 no effect, 100 complete control)
Excerpt: as §1

pigweed, palmer [13] = assay: Test C preemergence; format: in vivo, Amaranthus palmeri; settings: Preemergence, 1000 g ai/ha; visual rating after 10 days, 0 to 100 scale (0 no effect, 100 complete control)
Excerpt: as §1

ryegrass, Italian [14] = assay: Test C preemergence; format: in vivo, Lolium multiflorum; settings: Preemergence, 1000 g ai/ha; visual rating after 10 days, 0 to 100 scale (0 no effect, 100 complete control)
Excerpt: as §1

horseweed = assay: Test C postemergence; format: in vivo, Erigeron canadensis; settings: Postemergence, 1000 g ai/ha
Excerpt: as §1

galium = assay: Test C postemergence; format: in vivo, Galium aparine; settings: Postemergence, 1000 g ai/ha
Excerpt: as §1

[15] = 0 to 100 scale, 0 no effect, 100 complete control
[16] = 10 days, visual 0 to 100 scale (0 no effect, 100 complete control)

For Cc1cc(-c2cccc(C(=O)N3C[C@H](C)Oc4c(C)cccc43)c2)ccn1 [Compound 163], the “Plant response rating, Ryegrass, Italian” value (ryegrass, Italian [1]; [15]) was 0, the “Plant response rating, Blackgrass” value (blackgrass [2]) was 10 and the “Plant response rating, Ragweed” value (ragweed [3]; [15]) was 20. For the same compound, the “Plant response rating, Barnyardgrass” value (barnyardgrass [4]; [15]) was 0, the “Plant response rating, Blackgrass” value (blackgrass [5]; [15]) was 20 and the “Plant response rating, Barnyardgrass” value (barnyardgrass [6]) was 0. The “Plant response rating, Kochia” value (kochia [7]; [15]) was 50, the “Plant response rating, Foxtail, Green” value (green foxtail [8]; [15]) was 10 and the “Plant response rating, Foxtail, Green” value (green foxtail [9]) was 10. The “Plant response rating, Kochia” value (kochia [10]) was 0, the “Plant response rating, Pigweed, Palmer” value (pigweed, palmer [11]; [15]) was 30 and the “Plant response rating, Ragweed” value (ragweed [12]) was 0. For the same compound, the “Plant response rating, Pigweed, Palmer” value (pigweed, palmer [13]) was 0, the “Plant response rating, Ryegrass, Italian” value (ryegrass, Italian [14]) was 20 and the “Plant response rating, Horseweed” value (horseweed; [15]) was 0. The “Plant response rating, Galium” value (galium; [15]) was 0.
Cc1cnc(-c2cccc(C(=O)N3C[C@H](C)Oc4c(C)cccc43)c2)cn1 [Compound 162] was tested, and the “Plant response rating, Ryegrass, Italian” value (ryegrass, Italian [1]; [15]) was 40, the “Plant response rating, Blackgrass” value (blackgrass [2]) was 30 and the “Plant response rating, Ragweed” value (ragweed [3]; [15]) was 20. For the same compound, the “Plant response rating, Barnyardgrass” value (barnyardgrass [4]; [15]) was 10, the “Plant response rating, Blackgrass” value (blackgrass [5]; [15]) was 0 and the “Plant response rating, Barnyardgrass” value (barnyardgrass [6]) was 60. The “Plant response rating, Kochia” value (kochia [7]; [15]) was 70, the “Plant response rating, Foxtail, Green” value (green foxtail [8]; [15]) was 10 and the “Plant response rating, Foxtail, Green” value (green foxtail [9]) was 90. For the same compound, the “Plant response rating, Kochia” value (kochia [10]) was 0, the “Plant response rating, Pigweed, Palmer” value (pigweed, palmer [11]; [15]) was 20 and the “Plant response rating, Ragweed” value (ragweed [12]) was 0. The “Plant response rating, Pigweed, Palmer” value (pigweed, palmer [13]) was 30, the “Plant response rating, Ryegrass, Italian” value (ryegrass, Italian [14]) was 70 and the “Plant response rating, Horseweed” value (horseweed; [15]) was 0. The “Plant response rating, Galium” value (galium; [15]) was 50.
Cc1ccc(-c2cccc(C(=O)N3C[C@H](C)Oc4c(C)cccc43)c2)nn1 [Compound 160] was tested, and the “Plant response rating, Ryegrass, Italian” value (ryegrass, Italian [1]; [15]) was 0, the “Plant response rating, Blackgrass” value (blackgrass [2]) was 0 and the “Plant response rating, Ragweed” value (ragweed [3]; [15]) was 0. For the same compound, the “Plant response rating, Barnyardgrass” value (barnyardgrass [4]; [15]) was 10, the “Plant response rating, Blackgrass” value (blackgrass [5]; [15]) was 20 and the “Plant response rating, Barnyardgrass” value (barnyardgrass [6]) was 30. For the same compound, the “Plant response rating, Kochia” value (kochia [7]; [15]) was 70, the “Plant response rating, Foxtail, Green” value (green foxtail [8]; [15]) was 40 and the “Plant response rating, Foxtail, Green” value (green foxtail [9]) was 30. The “Plant response rating, Kochia” value (kochia [10]) was 70, the “Plant response rating, Pigweed, Palmer” value (pigweed, palmer [11]; [15]) was 0 and the “Plant response rating, Ragweed” value (ragweed [12]) was 0. For the same compound, the “Plant response rating, Pigweed, Palmer” value (pigweed, palmer [13]) was 20, the “Plant response rating, Ryegrass, Italian” value (ryegrass, Italian [14]) was 40 and the “Plant response rating, Horseweed” value (horseweed; [15]) was 0. For the same compound, the “Plant response rating, Galium” value (galium; [15]) was 50.
Cc1nsc(-c2cccc(C(=O)N3C[C@H](C)Oc4c(Cl)cccc43)c2)n1 [Compound 390] was tested, and the “Plant response rating, Ryegrass, Italian” value (ryegrass, Italian [1]; [16]) was 20, the “Plant response rating, Blackgrass” value (blackgrass [2]) was 20 and the “Plant response rating, Ragweed” value (ragweed [3]; [16]) was 30. The “Plant response rating, Barnyardgrass” value (barnyardgrass [4]; [16]) was 50, the “Plant response rating, Blackgrass” value (blackgrass [5]; [16]) was 50 and the “Plant response rating, Barnyardgrass” value (barnyardgrass [6]) was 80. For the same compound, the “Plant response rating, Kochia” value (kochia [7]; [16]) was 70, the “Plant response rating, Foxtail, Green” value (green foxtail [8]; [16]) was 20 and the “Plant response rating, Foxtail, Green” value (green foxtail [9]) was 100. For the same compound, the “Plant response rating, Kochia” value (kochia [10]) was 50, the “Plant response rating, Pigweed, Palmer” value (pigweed, palmer [11]; [16]) was 80 and the “Plant response rating, Ragweed” value (ragweed [12]) was 30. The “Plant response rating, Pigweed, Palmer” value (pigweed, palmer [13]) was 90, the “Plant response rating, Ryegrass, Italian” value (ryegrass, Italian [14]) was 80 and the “Plant response rating, Horseweed” value (horseweed; [16]) was 0. For the same compound, the “Plant response rating, Galium” value (galium; [16]) was 80.
For COc1ccc(-c2cccc(C(=O)N3C[C@H](C)Oc4c(Cl)cccc43)c2)cn1 [Compound 385], the “Plant response rating, Ryegrass, Italian” value (ryegrass, Italian [1]; [16]) was 10, the “Plant response rating, Blackgrass” value (blackgrass [2]) was 0 and the “Plant response rating, Ragweed” value (ragweed [3]; [16]) was 50. The “Plant response rating, Barnyardgrass” value (barnyardgrass [4]; [16]) was 20, the “Plant response rating, Blackgrass” value (blackgrass [5]; [16]) was 30 and the “Plant response rating, Barnyardgrass” value (barnyardgrass [6]) was 30. The “Plant response rating, Kochia” value (kochia [7]; [16]) was 70, the “Plant response rating, Foxtail, Green” value (green foxtail [8]; [16]) was 20 and the “Plant response rating, Foxtail, Green” value (green foxtail [9]) was 90. For the same compound, the “Plant response rating, Kochia” value (kochia [10]) was 0, the “Plant response rating, Pigweed, Palmer” value (pigweed, palmer [11]; [16]) was 70 and the “Plant response rating, Ragweed” value (ragweed [12]) was 0. For the same compound, the “Plant response rating, Pigweed, Palmer” value (pigweed, palmer [13]) was 50, the “Plant response rating, Ryegrass, Italian” value (ryegrass, Italian [14]) was 50 and the “Plant response rating, Horseweed” value (horseweed; [16]) was 0. For the same compound, the “Plant response rating, Galium” value (galium; [16]) was 60.
Cc1ncc(-c2cccc(C(=O)N3C[C@H](C)Oc4c(C)cccc43)c2)cn1 [Compound 161] was tested, and the “Plant response rating, Ryegrass, Italian” value (ryegrass, Italian [1]; [15]) was 20, the “Plant response rating, Blackgrass” value (blackgrass [2]) was 0 and the “Plant response rating, Ragweed” value (ragweed [3]; [15]) was 50. The “Plant response rating, Barnyardgrass” value (barnyardgrass [4]; [15]) was 10, the “Plant response rating, Blackgrass” value (blackgrass [5]; [15]) was 50 and the “Plant response rating, Barnyardgrass” value (barnyardgrass [6]) was 50. The “Plant response rating, Kochia” value (kochia [7]; [15]) was 30, the “Plant response rating, Foxtail, Green” value (green foxtail [8]; [15]) was 10 and the “Plant response rating, Foxtail, Green” value (green foxtail [9]) was 70. The “Plant response rating, Kochia” value (kochia [10]) was 30, the “Plant response rating, Pigweed, Palmer” value (pigweed, palmer [11]; [15]) was 0 and the “Plant response rating, Ragweed” value (ragweed [12]) was 80. For the same compound, the “Plant response rating, Pigweed, Palmer” value (pigweed, palmer [13]) was 0, the “Plant response rating, Ryegrass, Italian” value (ryegrass, Italian [14]) was 80 and the “Plant response rating, Horseweed” value (horseweed; [15]) was 10. The “Plant response rating, Galium” value (galium; [15]) was 50.
